# Experimental data: patent US7820811B2, “Pro-drugs of adenosine receptor agonists” (CBT Development Limited, priority 2006, dated 2010)
# Experiments:
# [1] = monkey, multiple oral dosing, 14C-labelled; cited from earlier work
# [2] = oral administration; cited from earlier work
# [3] = 20 mg/kg po; cited from earlier work
# [4] = test system: carageenan-induced oedema in a rat paw; conditions: rats, 20 mg/kg po; cited from earlier work
# [5] = test system: rat adjuvant model of arthritis; experiment: rat adjuvant model of arthritis, analgesic relief; type: in vivo
# [6] = molecular target: adenosine A2A receptor (UniProt P30543); experiment: EC50 at the adenosine A2A receptor; type: biochemical
# From the text: For the avoidance of doubt, the EC50 value of a compound is defined herein as the concentration of the compound that provokes a receptor response halfway between the baseline receptor response and the maximum receptor response (as determined, for example, using a dose-response curve).
# The EC50 value should be determined under standard conditions (balanced salt solutions buffered to pH 7.4). For EC50 determinations using isolated membranes, cells and tissues this would be in buffered salt solution at pH 7.4 (e.g. cell culture medium), for example as in Daly et al., Pharmacol. (1993) 46, 91-100), or preferably as in Tilburg et al (J. Med. Chem. (2002) 45, 91-100). The EC50 could also be determined in vivo by measuring adenosine receptor mediated responses in a normal healthy animal, or even in a tissue perfused under normal conditions (i.e. oxygenated blood, or oxygenated isotonic media, also buffered at pH 7.4) in a normal healthy animal.
# [7] = test system: U937 human macrophage cells; conditions: cited from earlier work
# [8] = test system: streptozocin-induced diabetic neuropathy; experiment: streptozocin-induced diabetic neuropathy, static allodynia (von Frey hairs); type: in vivo, rats
# Experimental: Diabetes was induced by a single i.p. injection of 50 mg/kg streptozocin (Sigma, 50 mg/ml/kg in citrate buffered saline 33 mM pH 4.5). Control animals received single i.p. injection of citrate buffered saline. […] Static allodynia was assessed using von Frey hairs and the paw withdrawal threshold (PWT) in grams (symbols represent the median and vertical bars represent the first and third quartiles) is indicated.
# [9] = cynamalogous monkeys, cited from earlier work
smiles,measurement,setting,value
N=C(N)c1ncn([C@@H]2O[C@H](CO)[C@@H](O)[C@H]2O)n1 [Viramidine],drug level in red blood cells compared to Ribavarin,[1],only half
same,drug level in the liver compared to Ribavarin,[1],three times
CC(C)[C@H](N)C(=O)OCCOCn1cnc2c(=O)[nH]c(N)nc21 [Valacyclovir],urinary excretion of Acyclovir,[2],63%
Nc1nc2c(ncn2COCCO)c(=O)[nH]1 [Acyclovir],urinary excretion of Acyclovir,[2],19%
"COc1nc(N)c2ncn([C@@H]3O[C@H](CO)[C@@H](O)[C@H]3O)c2n1 [spongosine, 2-methoxyadenosine]",reduction in heart rate,[3],25%
same,reduction in mean blood pressure,[3],41%
same,inhibition of carageenan-induced inflammation,[4],25%
same,minimum plasma concentration giving maximal analgesic relief,[5],0.06 µM
same,EC50,[6],~1000 nM
same,phorbol ester induced TNF alpha release,[7],reduce phorbol ester induced TNF alpha release
same,alleviation of allodynia at late time points,"[8]; 2.1 mg/kg dose cohort at 2, 3 and 4 hours",Significant alleviation of allodynia was still evident
same,dose dependence of reversal of streptozocin induced static allodynia,"[8]; 0.6-2.1 mg/kg, po, STZ rats, PWT",dose dependant effects
same,"reversal of static allodynia, all doses","[8]; all doses 0.6-2.1 mg/kg po, STZ rats, PWT",effective at reversing allodynia
same,"reversal of static allodynia, top dose","[8]; top dose (2.1 mg/kg po), versus naïve non-streptozocin injected controls",fully reversed the allodynia
Nc1ccn([C@@H]2C[C@@H](O)[C@H](CO)O2)c(=O)n1 [2′-deoxy-β-L-cytidine],oral bioavailability (of 2′-deoxy-β-L-cytidine),[9]; oral,18%
same,half-life (po),[9]; po,2.95 h
